{"source": "patent US20240390434A1", "about": "“PROBIOTIC ENHANCERS AND USES THEREOF” (Blis Technologies Limited, priority 2021, published 2024)", "type_in_all_cases": "cell-based", "key": {"S. pneumoniae D39": {"system": "S. pneumoniae D39", "experiment": "Deferred antagonism assay, producer S. salivarius M18", "conditions": "for Zone of inhibition S. pneumoniae D39: M18", "description": "(§1) 1-2 producer strain colonies were transferred from a stock plate into 900 μL of suspension solution using a fresh cotton swab. Following this, suspensions were vortexed, and a sample was inoculated onto solid culture media using a fresh cotton swab. The inoculation was a streak that runs diametrically across the agar plate in a 1.5 cm wide strip. The plate was then incubated. Following incubation all visible colonies were removed by swabbing them from the agar surface. The plates were then treated with chloroform by dispensing 2 ml of chloroform onto 4 cm×4 cm piece of cloth and sealing the inverted agar plate on top for 30 minutes. The plates were then air dried for 30 minutes following chloroforming. 1-2 indicator strain colonies were then transferred from a stock plate into complementary suspension solution. The suspensions were then vortexed, and a sample was inoculated onto the same agar surface. These samples were streaked in a perpendicular direction to the initial producer streak.\n(§2) Each indicator streak was prepared with fresh a suspension containing cells from a corresponding stock plate containing the indicator strain of interest. Indicator strains suspension samples were transferred using a fresh cotton swab. Results were measured by qualitatively reviewing the subsequent (if any) sizes of the zones of inhibition (ZOI) of indicator strain colony growth. A positive result is when there is a distinctive reduction or complete inhibition of indicator colony growth on the culture medium.\n(§3) CABCa agar plates containing various concentrations of saccharide were prepared according to the methods described in Method 1. Producer strains were transferred from stock agar plates into 900 μL THB using a fresh cotton swab. A plastic spread plater was cut to approximately 1.2 cm width and then dipped into ethanol and left to air dry to ensure sterility. A 100 μL sample of the producer strain suspension was then dispensed onto the agar surface in a straight line running diametrically across the agar surface in (approximately) 20 μL spots. The spots were spaced approximately 1.5 cm apart from each other. The plastic spreader was then used to evenly distribute the spots across the agar surface in a 1.5 cm wide strip. This step was taken to ensure an even producer streak was inoculated onto the agar surface and provided an approximate measure of the initial inoculum concentration. Separate plastic spreaders were used for samples containing different producer strains. The samples were left to soak into the agar surface until there was no visible liquid remaining on the agar surface (approximately 20 minutes). Following producer streak preparations, the deferred antagonism assay protocol was followed as per Method 2. Results were recorded by measuring the size of the zone of inhibition (ZOI) in mm.\n(§4) A dose response assay was carried out according to method 3 above, except a 1.2 cm streak was used. For the individual saccharide testing the pH of the producer streak was adjusted after the growth of producer to change the acidic conditions.\n(§5) A deferred antagonism assay was conducted using K12 or M18 raw ingredient suspended in Todd Hewitt broth (THB). This was spread as a 1.2 cm streak containing approximately 1-2×10^6 cfu down the middle of a CABCa control or CABCa galactose supplemented test plate. After 18 hrs growth at 37° C. with 5% CO2, bacterial growth was removed, and the pH of the agar in the initial streak was measured and adjusted to a pH of 6.5-7.5 using 0.5M sodium carbonate pH11 before sterilizing the agar surface using chloroform vapor. Bacterial test strains were suspended in i-THB before being swabbed across the plates perpendicular to the initial streak. Plates were incubated for a further 18 hrs incubation at 37° C. with 5% CO2 before measuring (mm) any zones of inhibition for each test strain, […]"}, "S. aureus A222": {"system": "S. aureus A222", "experiment": "Deferred antagonism assay, producer S. salivarius M18", "conditions": "for Zone of inhibition S. aureus A222: M18", "description": "as §1, §2, §3, §4, §5"}, "S. mutans OMZ175": {"system": "S. mutans OMZ175", "experiment": "Deferred antagonism assay, producer S. salivarius M18", "conditions": "for Zone of inhibition S. mutans OMZ175: M18", "description": "as §1, §2, §3, §4, §5"}, "S. pyogenes 71-698": {"system": "S. pyogenes 71-698", "experiment": "Deferred antagonism assay, producer S. salivarius M18", "conditions": "for Zone of inhibition S. pyogenes 71-698: M18", "description": "as §1, §2, §3, §4, §5"}, "[1]": {"system": "indicator bacterial test strains", "experiment": "Inhibitory activity of freeze dried raw ingredient powder, K12", "conditions": "galactose 0.5% w/w; raffinose 2.5% w/w; or combination", "description": "Method: The amount of raffinose and galactose used was calculated based on the volume of the area of the producer streak, (which was calculated to be 4.25 g) to allow for the absorption of the saccharides into the agar. Based on this, amount of 0.021 g (i.e. 0.5% w/w galactose of 4.25 g agar volume) of galactose, 0.11 g (i.e 2.5% w/w) of raffinose and the combination of galactose (0.5% w/w) and raffinose (2.5% w/w) (0.13 g total) were weighed into sterile containers. K12 and/or M18 raw ingredient were suspended and diluted with sterile distilled water to a concentration of 1-2×10^6 cfu/100 μl. Then, […] of K12 only, M18 only, and K12±M18 suspensions were spread as a 1 cm streak down the middle of a CABCa agar plate using a sterile spreader. […] Bacterial growth was then removed using a microscope slide, and the pH of the agar in the producer streak area was measured and adjusted to pH 6.5-7.5 using 0.5M sodium carbonate (pH 11) before surface sterilizing the plates with chloroform vapour. […] Zones of inhibition for each test organism were then measured in mm using a ruler. The amount of raffinose and galactose to be used was calculated based on the volume of the area of the producer streak, (which was calculated to be 4.25 g) to allow for absorption into the agar."}}, "data": [{"smiles": "OC[C@H]1O[C@H](OC[C@H]2O[C@H](O[C@]3(CO)O[C@H](CO)[C@@H](O)[C@@H]3O)[C@H](O)[C@@H](O)[C@@H]2O)[C@H](O)[C@@H](O)[C@H]1O", "note": "[Raffinose, D-(+) Raffinose pentahydrate]", "values": [{"measurement": "inhibition by M18 of S. pneumoniae", "setting": "S. pneumoniae D39; 0.5 to 10% w/v raffinose", "result": "increase in inhibition"}, {"measurement": "Zone of inhibition S. pneumoniae D39", "setting": "S. pneumoniae D39; Raffinose 1.7% wt", "result": 3, "unit": "mm"}, {"measurement": "Zone of inhibition S. pneumoniae D39", "setting": "S. pneumoniae D39; Raffinose 1.7% wt, pH adjusted", "result": 12, "unit": "mm"}, {"measurement": "Zone of inhibition S. pneumoniae D39", "setting": "S. pneumoniae D39; Raffinose 2.5% wt", "result": 10, "unit": "mm"}, {"measurement": "Zone of inhibition S. pneumoniae D39", "setting": "S. pneumoniae D39; Raffinose 2.5% wt, pH adjusted", "result": 11, "unit": "mm"}, {"measurement": "Zone of inhibition S. pneumoniae D39", "setting": "S. pneumoniae D39; Raffinose 3.3% wt", "result": 7, "unit": "mm"}, {"measurement": "Zone of inhibition S. pneumoniae D39", "setting": "S. pneumoniae D39; Raffinose 3.3% wt, pH adjusted", "result": 13, "unit": "mm"}, {"measurement": "Zone of inhibition S. pneumoniae D39", "setting": "S. pneumoniae D39; Raffinose 5% wt", "result": 2, "unit": "mm"}, {"measurement": "Zone of inhibition S. pneumoniae D39", "setting": "S. pneumoniae D39; Raffinose 5% wt, pH adjusted", "result": 12, "unit": "mm"}, {"measurement": "Zone of inhibition S. pneumoniae D39", "setting": "S. pneumoniae D39; Raffinose 10% wt", "result": 1, "unit": "mm"}, {"measurement": "Zone of inhibition S. pneumoniae D39", "setting": "S. pneumoniae D39; Raffinose 10% wt, pH adjusted", "result": 11, "unit": "mm"}, {"measurement": "sensitivity of S. aureus A222 to M18", "setting": "S. aureus A222; 1.25, 2.5, 5% w/v raffinose added", "result": "sensitive"}, {"measurement": "Zone of inhibition S. aureus A222", "setting": "S. aureus A222; Raffinose 1.7% wt", "result": 20, "unit": "mm"}, {"measurement": "Zone of inhibition S. aureus A222", "setting": "S. aureus A222; Raffinose 1.7% wt, pH adjusted", "result": 17, "unit": "mm"}, {"measurement": "Zone of inhibition S. aureus A222", "setting": "S. aureus A222; Raffinose 2.5% wt", "result": 20, "unit": "mm"}, {"measurement": "Zone of inhibition S. aureus A222", "setting": "S. aureus A222; Raffinose 2.5% wt, pH adjusted", "result": 18, "unit": "mm"}, {"measurement": "Zone of inhibition S. aureus A222", "setting": "S. aureus A222; Raffinose 3.3% wt", "result": 18, "unit": "mm"}, {"measurement": "Zone of inhibition S. aureus A222", "setting": "S. aureus A222; Raffinose 3.3% wt, pH adjusted", "result": 17, "unit": "mm"}, {"measurement": "Zone of inhibition S. aureus A222", "setting": "S. aureus A222; Raffinose 5% wt", "result": 16, "unit": "mm"}, {"measurement": "Zone of inhibition S. aureus A222", "setting": "S. aureus A222; Raffinose 5% wt, pH adjusted", "result": 13, "unit": "mm"}, {"measurement": "Zone of inhibition S. aureus A222", "setting": "S. aureus A222; Raffinose 10% wt", "result": 0, "unit": "mm"}, {"measurement": "Zone of inhibition S. aureus A222", "setting": "S. aureus A222; Raffinose 10% wt, pH adjusted", "result": 0, "unit": "mm"}, {"measurement": "sensitivity of S. mutans OMZ175 to M18", "setting": "S. mutans OMZ175; 0.5, 1.25, 2.5, and 5% w/v raffinose added", "result": "sensitive"}, {"measurement": "Zone of inhibition S. mutans OMZ175", "setting": "S. mutans OMZ175; Raffinose 1.7% wt", "result": 22, "unit": "mm"}, {"measurement": "Zone of inhibition S. mutans OMZ175", "setting": "S. mutans OMZ175; Raffinose 1.7% wt, pH adjusted", "result": 21, "unit": "mm"}, {"measurement": "Zone of inhibition S. mutans OMZ175", "setting": "S. mutans OMZ175; Raffinose 2.5% wt", "result": 20, "unit": "mm"}, {"measurement": "Zone of inhibition S. mutans OMZ175", "setting": "S. mutans OMZ175; Raffinose 2.5% wt, pH adjusted", "result": 19, "unit": "mm"}, {"measurement": "Zone of inhibition S. mutans OMZ175", "setting": "S. mutans OMZ175; Raffinose 3.3% wt", "result": 21, "unit": "mm"}, {"measurement": "Zone of inhibition S. mutans OMZ175", "setting": "S. mutans OMZ175; Raffinose 3.3% wt, pH adjusted", "result": 17, "unit": "mm"}, {"measurement": "Zone of inhibition S. mutans OMZ175", "setting": "S. mutans OMZ175; Raffinose 5% wt", "result": 19, "unit": "mm"}, {"measurement": "Zone of inhibition S. mutans OMZ175", "setting": "S. mutans OMZ175; Raffinose 5% wt, pH adjusted", "result": 16, "unit": "mm"}, {"measurement": "Zone of inhibition S. mutans OMZ175", "setting": "S. mutans OMZ175; Raffinose 10% wt", "result": 0, "unit": "mm"}, {"measurement": "Zone of inhibition S. mutans OMZ175", "setting": "S. mutans OMZ175; Raffinose 10% wt, pH adjusted", "result": 0, "unit": "mm"}, {"measurement": "inhibition by M18 of S. pyogenes", "setting": "S. pyogenes 71-698; 0.5 to 10% w/v raffinose", "result": "increase in inhibition"}, {"measurement": "Zone of inhibition S. pyogenes 71-698", "setting": "S. pyogenes 71-698; Raffinose 1.7% wt, pH adjusted", "result": 10, "unit": "mm"}, {"measurement": "Zone of inhibition S. pyogenes 71-698", "setting": "S. pyogenes 71-698; Raffinose 2.5% wt", "result": 8, "unit": "mm"}, {"measurement": "Zone of inhibition S. pyogenes 71-698", "setting": "S. pyogenes 71-698; Raffinose 2.5% wt, pH adjusted", "result": 7, "unit": "mm"}, {"measurement": "Zone of inhibition S. pyogenes 71-698", "setting": "S. pyogenes 71-698; Raffinose 3.3% wt", "result": 8, "unit": "mm"}, {"measurement": "Zone of inhibition S. pyogenes 71-698", "setting": "S. pyogenes 71-698; Raffinose 3.3% wt, pH adjusted", "result": 7, "unit": "mm"}, {"measurement": "Zone of inhibition S. pyogenes 71-698", "setting": "S. pyogenes 71-698; Raffinose 5% wt", "result": 5, "unit": "mm"}, {"measurement": "Zone of inhibition S. pyogenes 71-698", "setting": "S. pyogenes 71-698; Raffinose 5% wt, pH adjusted", "result": 5, "unit": "mm"}, {"measurement": "Zone of inhibition S. pyogenes 71-698", "setting": "S. pyogenes 71-698; Raffinose 10% wt", "result": 0, "unit": "mm"}, {"measurement": "Zone of inhibition S. pyogenes 71-698", "setting": "S. pyogenes 71-698; Raffinose 10% wt, pH adjusted", "result": 0, "unit": "mm"}, {"measurement": "inhibitory activity of freeze-dried raw ingredient powder of K12", "setting": "[1]", "result": "induced the inhibitory activity"}]}]}
